Measurements published in ChEMBL document CHEMBL1144356 (J Med Chem, 2005).

What was measured:
[1] = biological target: T1, Peroxisome proliferator-activated receptor gamma (Homo sapiens, UniProt P37231); test: In vitro binding affinity for PPAR-gamma
T1 sequence (P37231 whole entry): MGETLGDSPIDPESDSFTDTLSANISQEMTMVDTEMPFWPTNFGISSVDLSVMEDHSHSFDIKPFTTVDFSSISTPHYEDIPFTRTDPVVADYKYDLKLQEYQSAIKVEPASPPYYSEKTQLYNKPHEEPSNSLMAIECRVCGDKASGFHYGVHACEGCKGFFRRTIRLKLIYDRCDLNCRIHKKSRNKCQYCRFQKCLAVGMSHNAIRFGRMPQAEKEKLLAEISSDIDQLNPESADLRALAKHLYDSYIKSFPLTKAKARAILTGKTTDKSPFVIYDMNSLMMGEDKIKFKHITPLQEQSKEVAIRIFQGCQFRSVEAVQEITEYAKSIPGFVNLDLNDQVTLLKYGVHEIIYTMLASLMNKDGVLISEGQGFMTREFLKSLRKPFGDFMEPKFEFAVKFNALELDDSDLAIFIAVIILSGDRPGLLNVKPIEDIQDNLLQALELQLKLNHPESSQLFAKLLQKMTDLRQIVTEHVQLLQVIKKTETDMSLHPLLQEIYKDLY

[2] = test system: Cricetinae gen. sp.; test: Effect at an oral dose of 0.1 mg/kg/day for 14 days on serum triglyceride level of hamster; type: functional, Cricetulus griseus
[3] = test system: Cricetinae gen. sp.; test: Effect at an oral dose of 0.1 mg/kg/day for 14 days on serum cholesterol level of hamster; type: functional, Cricetulus griseus
[4] = biological target: T2, Peroxisome proliferator-activated receptor alpha (Canis lupus familiaris, UniProt Q95N78); test: Effective concentration against canine PPAR-alpha in Gal4 transactivation assay
T2 sequence (Q95N78 whole entry): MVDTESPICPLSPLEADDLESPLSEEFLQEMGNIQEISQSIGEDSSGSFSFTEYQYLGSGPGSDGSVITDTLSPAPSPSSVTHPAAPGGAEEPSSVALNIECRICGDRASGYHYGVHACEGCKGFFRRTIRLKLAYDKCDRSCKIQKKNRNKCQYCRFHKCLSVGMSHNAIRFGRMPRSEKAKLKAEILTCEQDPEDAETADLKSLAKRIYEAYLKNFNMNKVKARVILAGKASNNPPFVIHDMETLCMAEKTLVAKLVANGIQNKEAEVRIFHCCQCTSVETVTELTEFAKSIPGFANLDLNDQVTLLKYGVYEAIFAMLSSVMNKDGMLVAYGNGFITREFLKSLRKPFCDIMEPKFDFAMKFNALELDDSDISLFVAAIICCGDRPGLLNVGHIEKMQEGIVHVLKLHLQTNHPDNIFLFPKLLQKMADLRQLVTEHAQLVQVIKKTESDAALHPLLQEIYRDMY

[5] = test system: Cricetinae gen. sp.; test: Effect at an oral dose of 0.3 mg/kg/day for 14 days on serum triglyceride level of hamster; type: functional, Cricetulus griseus
[6] = biological target: T1, Peroxisome proliferator-activated receptor gamma; test: Effective concentration against human PPAR-gamma in Gal4 transactivation assay; 25% response at 3 uM; type: functional
[7] = test system: Cricetinae gen. sp.; test: Effect at an oral dose of 0.3 mg/kg/day for 14 days on serum cholesterol level of hamster; type: functional, Cricetulus griseus
[8] = biological target: T3, Peroxisome proliferator-activated receptor delta (Homo sapiens, UniProt Q03181); test: In vitro binding affinity for PPAR-delta
T3 sequence (Q03181 whole entry): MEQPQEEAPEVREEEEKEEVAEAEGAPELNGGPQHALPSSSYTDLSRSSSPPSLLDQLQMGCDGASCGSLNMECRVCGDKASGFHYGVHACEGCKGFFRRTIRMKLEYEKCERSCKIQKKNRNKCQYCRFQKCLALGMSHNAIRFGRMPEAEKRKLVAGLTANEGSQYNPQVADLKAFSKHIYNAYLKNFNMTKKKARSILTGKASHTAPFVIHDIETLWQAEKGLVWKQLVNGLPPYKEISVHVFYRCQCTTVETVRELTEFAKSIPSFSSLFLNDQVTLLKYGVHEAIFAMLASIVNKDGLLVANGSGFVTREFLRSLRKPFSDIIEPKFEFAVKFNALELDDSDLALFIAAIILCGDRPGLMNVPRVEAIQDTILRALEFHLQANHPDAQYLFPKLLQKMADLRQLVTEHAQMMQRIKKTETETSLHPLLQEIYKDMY

[9] = In vitro binding affinity for PPAR-alpha; parameters: species or system Homo sapiens
[10] = biological target: T4, Peroxisome proliferator-activated receptor alpha (Homo sapiens, UniProt Q07869); test: Effective concentration against human PPAR-alpha in Gal4 transactivation assay; type: functional
T4 sequence (Q07869 whole entry): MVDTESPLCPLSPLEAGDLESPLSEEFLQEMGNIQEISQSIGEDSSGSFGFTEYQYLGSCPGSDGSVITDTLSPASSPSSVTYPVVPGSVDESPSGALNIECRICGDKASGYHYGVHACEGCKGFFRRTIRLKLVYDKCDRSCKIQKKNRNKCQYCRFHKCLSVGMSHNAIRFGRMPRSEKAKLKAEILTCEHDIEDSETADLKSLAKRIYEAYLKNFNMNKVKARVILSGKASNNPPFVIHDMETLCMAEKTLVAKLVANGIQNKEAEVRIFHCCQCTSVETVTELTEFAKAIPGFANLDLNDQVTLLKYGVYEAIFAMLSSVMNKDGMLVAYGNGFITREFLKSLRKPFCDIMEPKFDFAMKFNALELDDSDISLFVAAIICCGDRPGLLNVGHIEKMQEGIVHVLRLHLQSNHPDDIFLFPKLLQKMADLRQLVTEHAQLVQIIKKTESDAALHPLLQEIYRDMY

[11] = biological target: T1, Peroxisome proliferator-activated receptor gamma; test: Effective concentration against human PPAR-gamma in Gal4 transactivation assay; 4% response at 3 uM; type: functional
[12] = biological target: T1, Peroxisome proliferator-activated receptor gamma; test: Effective concentration against human PPAR-gamma in Gal4 transactivation assay; 2% response at 3 uM; type: functional
[13] = biological target: T1, Peroxisome proliferator-activated receptor gamma; test: Effective concentration against human PPAR-gamma in Gal4 transactivation assay; 28% response at 3 uM; type: functional
[14] = biological target: T1, Peroxisome proliferator-activated receptor gamma; test: Effective concentration against human PPAR-gamma in Gal4 transactivation assay; 56% response at 3 uM; type: functional
[15] = biological target: T1, Peroxisome proliferator-activated receptor gamma; test: Effective concentration against human PPAR-gamma in Gal4 transactivation assay; 19% response at 3 uM; type: functional
[16] = biological target: T1, Peroxisome proliferator-activated receptor gamma; test: Effective concentration against human PPAR-gamma in Gal4 transactivation assay; 30% response at 3 uM; type: functional
[17] = biological target: T1, Peroxisome proliferator-activated receptor gamma; test: Effective concentration required to produce 50% of maximal reporter activity in cell based transactivation assay using human PPAR-gamma-GAL4 chimeric receptor; 6% response at 3 uM ccompound concentration; type: functional
[18] = biological target: T1, Peroxisome proliferator-activated receptor gamma; test: Effective concentration against human PPAR-gamma in Gal4 transactivation assay; 11% response at 3 uM; type: functional
[19] = biological target: T1, Peroxisome proliferator-activated receptor gamma; test: Effective concentration against human PPAR-gamma in Gal4 transactivation assay; type: functional
[20] = biological target: T1, Peroxisome proliferator-activated receptor gamma; test: Effective concentration against human PPAR-gamma in Gal4 transactivation assay; 59% response at 3 uM; type: functional
[21] = biological target: T1, Peroxisome proliferator-activated receptor gamma; test: Effective concentration against human PPAR-gamma in Gal4 transactivation assay; 12% response at 3 uM; type: functional

Row | Compound | IC50 [1] [nM] | EC50 [4] [nM] | IC50 [8] [nM] | IC50 [9] [nM] | EC50 [10] [nM] | also measured
1 | CC(C)[C@@]1(C(=O)O)Cc2cc(OCCCOc3ccc(OC(F)(F)F)cc3Cl)ccc2O1 | > 15000 | < 1 | > 15000 | 3 | – | TG [2]: -52%; TC [3]: -43%; TG [5]: -52%; EC50 [6]: > 3000 nM; TC [7]: -54%
2 | CC[C@]1(C(=O)O)Cc2cc(OCCCOc3ccc(OC(F)(F)F)cc3Cl)ccc2O1 | > 15000 | – | > 50000 | 2230 | – | –
3 | CC(C)(C)[C@@]1(C(=O)O)Cc2cc(OCCOc3ccc(OC(F)(F)F)cc3Cl)ccc2O1 | > 50000 | – | > 50000 | 1390 | – | –
4 | O=C(O)C1Cc2cc(OCCCOc3ccc(OCC(F)(F)F)cc3Cl)ccc2O1 (racemic) | > 15000 | 1350 | > 15000 | 786 | – | –
5 | CC(C)[C@@]1(C(=O)O)Cc2cc(OCCOc3ccc(OC(F)(F)F)cc3Cl)ccc2O1 | > 50000 | 10 | > 50000 | 264 | 57 | EC50 [11]: > 3000 nM
6 | CC[C@@]1(C(=O)O)Cc2cc(OCCCOc3ccc(CCC(F)(F)F)cc3Cl)ccc2O1 | > 15000 | 2 | > 15000 | 21 | – | –
7 | O=C(O)C1(C(F)(F)F)Cc2cc(OCCCOc3ccc(CC(F)(F)F)cc3Cl)ccc2O1 (racemic) | > 15000 | 26 | 399 | 9 | 37 | EC50 [12]: > 3000 nM
8 | CC[C@@]1(C(=O)O)Cc2cc(OCCCOc3ccc(CC(F)(F)F)cc3Cl)ccc2O1 | > 15000 | < 1 | > 15000 | 4 | 2 | TG [2]: -13%; TC [3]: -33%; EC50 [13]: > 3000 nM; TG [5]: -26%; TC [7]: -37%
9 | CCC1(C(=O)O)Cc2cc(OCCCOc3ccc(C(C)(C)C)cc3Cl)ccc2O1 (racemic) | 4330 | 20 | > 15000 | 17 | 9 | EC50 [14]: > 3000 nM
10 | CCC1(C(=O)O)Cc2ccc(OCCCOc3ccc(OC(F)(F)F)cc3Cl)cc2O1 (stereo not drawn) | 3220 | < 1 | 1190 | 22 | – | –
11 | CCC1(C(=O)O)Cc2cc(OCCCOc3ccc(C(F)(F)F)cc3Cl)ccc2O1 (racemic) | > 15000 | – | 834 | 42 | – | –
12 | CC[C@@]1(C(=O)O)Cc2cc(OCCCOc3ccc(OCC(F)(F)F)cc3)ccc2O1 | > 50000 | 130 | > 15000 | 231 | – | –
13 | CCC1(C(=O)O)Cc2cc(OCCCOc3ccc(OCC(F)(F)F)cc3Cl)ccc2O1 (racemic) | > 15000 | 8 | > 15000 | 32 | 34 | EC50 [15]: > 3000 nM
14 | CCC1(C(=O)O)Cc2cc(OCCCOc3ccc(SC(F)(F)F)cc3Cl)ccc2O1 (racemic) | 6770 | < 1 | > 15000 | 3 | 3 | EC50 [16]: > 3000 nM
15 | CC(C)(C)C1(C(=O)O)Cc2cc(OCCCOc3ccc(CC(F)(F)F)cc3Cl)ccc2O1 (racemic) | > 15000 | 2 | > 50000 | 7 | – | EC50 [17]: > 3000 nM
16 | CC(C)[C@@]1(C(=O)O)Cc2cc(OCCCOc3cc(C(F)(F)F)ccc3Cl)ccc2O1 | > 15000 | 42 | > 15000 | 162 | 41 | EC50 [18]: > 3000 nM
17 | CC1(C(=O)O)Cc2cc(OCCCOc3ccc(OCC(F)(F)F)cc3Cl)ccc2O1 (racemic) | > 15000 | 42 | > 15000 | 106 | 138 | EC50 [19]: > 3000 nM
18 | O=C(O)C1(Cc2ccccc2)Cc2cc(OCCCOc3ccc(OC(F)(F)F)cc3Cl)ccc2O1 (racemic) | > 15000 | – | > 50000 | 275 | – | –
19 | CCCc1cc(SC(F)(F)F)ccc1OCCCOc1ccc2c(c1)CC(CC)(C(=O)O)O2 (racemic) | 3110 | < 1 | 5230 | 11 | 8 | EC50 [20]: > 3000 nM
20 | CCC1(C(=O)O)Cc2cc(OCCCOc3ccc(CC(C)(C)C)cc3Cl)ccc2O1 (racemic) | 5600 | 2 | > 50000 | 4 | – | EC50 [21]: > 3000 nM
21 | CC(C)[C@]1(C(=O)O)Cc2cc(OCCCOc3ccc(OC(F)(F)F)cc3Cl)ccc2O1 | > 50000 | – | > 15000 | 1280 | – | –
